Results published in PubChem BioAssay (NCI).
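Assay format: 96-well plates, 48-hour exposure. Abbreviation: GI50, concentration required for 50% inhibition of growth. The concentration for full growth arrest is given as TGI.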 Where a SMILES comes first, the peptide text is derived from it.

What was measured:
Experiment in all cases: inhibition of tumour cell growth, NCI panel, 48 h
[1] = tested on: SK-MEL-5 melanoma
[2] = tested on: A498 renal
[3] = tested on: RXF 393 renal
[4] = tested on: MDA-MB-435
[5] = tested on: U251 CNS
[6] = tested on: UO-31 renal
[7] = tested on: SNB-75 CNS
[8] = tested on: OVCAR-5 ovarian
[9] = tested on: SW-620 colon
[10] = tested on: T-47D breast

Row | Structure (SMILES) | GI50 [1] | TGI [1] | GI50 [2] | TGI [2] | GI50 [3] | TGI [3] | GI50 [4] | TGI [4] | GI50 [5] | TGI [5] | GI50 [6] | TGI [6] | TGI [7] | TGI [8] | TGI [9] | GI50 [7] | GI50 [8] | GI50 [9] | GI50 [10] | TGI [10]
1 | Cc1cc(N2CCCC2)nc(NCc2cc(Nc3ccnc4cc(Cl)ccc34)ccc2F)n1 | 1010 nM | 2.2 µM | 1040 nM | 2.54 µM | 1430 nM | 2.87 µM | 1.51 µM | 2.99 µM | 1.5 µM | 2.84 µM | 1.21 µM | 2.66 µM |  |  |  |  |  |  |  | 
2 | CCC(C)C1NC(=O)C2CCCN2C(=O)CNC(=O)C(C)NC(=O)C(Cc2ccccc2)NC(=O)C(C(C)C)NC1=O (configuration not stated) (cyclo(GPIVFA); configuration not given here) |  | > 100 µM |  | > 100 µM |  | > 100 µM |  |  |  | > 100 µM |  | > 100 µM | > 100 µM | > 100 µM | > 100 µM |  |  |  |  | 
3 | CCCCc1n(Cc2ccc3ccccc3c2)cc[n+]1Cc1ccc2ccccc2c1 | 612 nM | 1.86 µM |  |  | 1190 nM | 2.49 µM | 1.02 µM | 2.26 µM |  |  | 1.45 µM | 2.96 µM | 2.4 µM | 2.63 µM | 2.77 µM | 908 nM | 1280 nM | 1.2 µM |  | 
4 | COc1ccc2c(c1)[n+]([O-])c(-c1ccc(C)cc1)c(N)[n+]2[O-] |  | > 100 µM |  | > 100 µM |  |  |  |  |  | > 100 µM |  | > 100 µM | > 100 µM | > 100 µM | > 100 µM |  |  |  |  | 
5 | O=[N+]([O-])c1ccccc1C=NC12CC3CC(CC(C3)C1)C2 |  | > 100 µM |  | > 100 µM |  | > 100 µM |  |  |  | > 100 µM |  | > 100 µM | > 100 µM | > 100 µM | > 100 µM |  |  |  |  | 
6 | COc1ccc(-c2cc(-c3cc(Cl)cc(Br)c3O)[nH]c(=O)n2)cc1 |  |  |  | 31.4 µM |  | 31.7 µM |  |  |  | 31.3 µM |  | 34.7 µM | 38.3 µM |  | 46.9 µM |  |  |  |  | 
7 | Cc1ccc(C(SCC(N)C(=O)O)(c2ccccc2)c2ccccc2)cc1 (configuration not stated) | 45.2 nM | 19.6 µM | 1020 nM | > 64.7 µM | 103 nM | > 100 µM |  |  | 0.042 µM | > 40.1 µM | 13.8 µM | > 100 µM | 58.3 µM | > 100 µM | > 69.8 µM | 128 nM | 2410 nM | 0.0437 µM | 123 nM | > 77.7 µM
8 | C=C(CC(=O)O)C(=O)O (tested in a mixture with another compound) | > 50 µg/mL | > 50 µg/mL | > 50 µg/mL | > 50 µg/mL | 10.2 µg/mL | > 50 µg/mL |  |  | > 50 µg/mL | > 50 µg/mL | > 50 µg/mL | > 50 µg/mL |  | > 50 µg/mL | > 50 µg/mL |  | > 50 µg/mL | > 50 µg/mL | > 50 µg/mL | > 50 µg/mL
9 | COc1cc(-c2cc(/C=C/C(=O)c3ccc(Cl)c(Cl)c3)[nH]n2)cc(OC)c1OC | 13400 nM | 46.9 µM | 5890 nM | 43 µM | 2700 nM | 12.8 µM | 5.65 µM | > 100 µM | 8.7 µM | 80.5 µM | 5.73 µM | > 100 µM |  | > 100 µM | 79.6 µM |  | 20500 nM | 8.63 µM | 1660 nM | 15.7 µM
10 | CC(=O)[CH-]C(=O)c1ccccc1.CC(=O)[CH-]C(=O)c1ccccc1.Cl.[O-]c1ccccn1.[O-]c1ccccn1.[Ti+4] | > 100000 nM | > 100 µM | > 100000 nM | > 100 µM |  |  |  |  | > 100 µM | > 100 µM | > 100 µM | > 100 µM | > 100 µM | > 100 µM | > 100 µM | > 100000 nM | > 100000 nM | > 100 µM |  | 
11 | Cc1ccc(-c2cc(=O)c3cc(C)c(C)c(C(=O)O)c3o2)cc1N |  | > 100 µM |  |  |  | > 100 µM |  |  |  | > 100 µM |  | > 100 µM | > 100 µM | > 100 µM | > 100 µM |  |  |  |  | 
12 | O=c1c(Br)cc2c(-c3ccccc3)c3cc(Br)c(O)c(Br)c3oc-2c1Br |  | > 100 µM |  | > 100 µM |  | > 100 µM |  | > 100 µM |  | > 100 µM |  | > 100 µM |  | > 100 µM | > 100 µM |  |  |  |  | > 100 µM
13 | Cc1ccc(C2=C(c3ccccc3)C(c3ccccc3)Oc3ccc(C)cc32)cc1 (configuration not stated) | 1920 nM | 3.63 µM | 1560 nM | 5.32 µM | 3370 nM | 13.3 µM | 8.5 µM | 26.8 µM | 14.8 µM | 28.5 µM | 4.37 µM | 17 µM |  | 8.64 µM | 13.2 µM |  | 2870 nM | 3.79 µM |  | 
14 | COC(=O)N/N=C(/CCC(=O)Nc1ccc(C)c(C)c1)CC(=O)C(C)(C)C |  | > 100 µM |  |  |  | > 100 µM |  |  |  | > 100 µM |  | > 100 µM | > 100 µM | > 100 µM | > 100 µM |  |  |  |  | 
15 | C#CC1(O)c2ccccc2C(=O)c2ccccc21 |  |  |  | > 100 µM |  | > 100 µM |  |  |  | > 100 µM |  |  |  | > 100 µM | > 100 µM |  |  |  |  | 
16 | COc1c(-c2ccc(O)c(O)c2)oc2c(O)c(O)cc(O)c2c1=O |  | > 100 µM |  | > 100 µM |  |  |  | > 100 µM |  | > 100 µM |  | > 100 µM |  | > 100 µM | 43.9 µM |  |  |  |  | > 100 µM
17 | Clc1ccc2nc(-c3ccccc3)nc(Cl)c2c1 |  | > 100 µM |  | > 100 µM |  | 48.6 µM |  |  |  | > 100 µM |  | > 100 µM | 59.5 µM | > 100 µM | > 100 µM |  |  |  |  | 
18 | CCCCN(CCCC)CCC(O)c1cc2c(Cl)cc(Cl)cc2c2cc(C(F)(F)F)ccc12 (configuration not stated) |  |  |  | 13.8 µM |  |  |  | 28.7 µM |  | 31.7 µM |  | 17.4 µM | 25.3 µM | 26 µM | 25.7 µM |  |  |  |  | 28.9 µM
19 | Cc1ccc(NC(=S)SCCC(=O)O)cc1 |  |  |  | > 100 µM |  | > 100 µM |  |  |  | > 100 µM |  | > 100 µM |  | > 100 µM | > 100 µM |  |  |  |  | 
20 | COc1ccc(/C=c2/sc3n(c2=O)NC2(CCC(C)CC2)NN=3)cc1 (configuration not stated) |  | > 100 µM |  |  |  | > 100 µM |  |  |  | > 100 µM |  | > 100 µM | > 100 µM | > 100 µM | > 100 µM |  |  |  |  | 
